# Measured values: ChEMBL document CHEMBL4033752, “Discovery of Potent and Selective Tricyclic Inhibitors of Bruton's Tyrosine Kinase with Improved Druglike Properties” (ACS Med Chem Lett, 2017)
# Calls of active or inactive are those of the source. The rule behind the calls is not given here.
# Key:
# [1] = Oral bioavailability in rat at 5 mg/kg; assay type: ADME, organism-based; conditions: in vivo
# [2] = Total clearance in rat at 1 mg/kg, iv; assay type: ADME, organism-based; conditions: in vivo
# [3] = Apparent permeability from apical side to basolateral side in MDCK cells at 10 uM after 3 hrs by LC-MS/MS analysis; assay type: ADME, cell-based, Canis lupus familiaris; conditions: dog
# [4] = biological target: Tyrosine-protein kinase BTK (Mus musculus, UniProt P35991)
# [5] = buffer, pH 7.4
# Description: Kinetic solubility of the compound at pH 7.4
# [6] = biological target: T1, Tyrosine-protein kinase BTK (Homo sapiens, UniProt Q06187)
# Description: Inhibition of recombinant human full length His-tagged BTK expressed in baculovirus expression system by Z-LYTE assay
# [7] = biological target: T1, Tyrosine-protein kinase BTK; remark: listed apart in the source
# Description: Inhibition of BTK in goat anti-human IgM F(ab')2-stimulated human whole blood assessed as suppression of BCR-induced CD69 expression on B cells preincubated for 1 hr followed by blood stimulation measured after 18 hrs by FACS analysis
# [8] = system: Rattus norvegicus; test: Antiinflammatory activity in Lewis rat CIA model assessed as reduction in ankle thickness at 0.05 mg/kg measured between day 10 and day 17; assay type: functional, organism-based
# [9] = Total clearance in mouse; assay type: ADME, organism-based; conditions: in vivo
# [10] = Total clearance in dog; assay type: ADME, Canis lupus familiaris; conditions: in vivo
# [11] = Total clearance in cynomolgus monkey; assay type: ADME, Macaca fascicularis; conditions: in vivo
# [12] = system: Mus musculus; test: Oral bioavailability in mouse at 5 mg/kg; assay type: ADME, organism-based; conditions: in vivo
# [13] = system: Mus musculus; test: Oral bioavailability in mouse at 100 mg/kg; assay type: ADME, organism-based; conditions: in vivo
# [14] = system: Rattus norvegicus; test: Oral bioavailability in rat at 100 mg/kg; assay type: ADME, organism-based; conditions: in vivo
# [15] = system: Canis familiaris; test: Oral bioavailability in dog at 5 mg/kg; assay type: ADME, organism-based, Canis lupus familiaris; conditions: in vivo
# [16] = system: Rattus norvegicus; test: Antiinflammatory activity in Lewis rat CIA model assessed as reduction in ankle thickness administered via oral gavage as bid measured between day 10 and day 17; assay type: functional
# Tyrosine-protein kinase BTK (Mus musculus, UniProt P35991), sequence (P35991 whole entry): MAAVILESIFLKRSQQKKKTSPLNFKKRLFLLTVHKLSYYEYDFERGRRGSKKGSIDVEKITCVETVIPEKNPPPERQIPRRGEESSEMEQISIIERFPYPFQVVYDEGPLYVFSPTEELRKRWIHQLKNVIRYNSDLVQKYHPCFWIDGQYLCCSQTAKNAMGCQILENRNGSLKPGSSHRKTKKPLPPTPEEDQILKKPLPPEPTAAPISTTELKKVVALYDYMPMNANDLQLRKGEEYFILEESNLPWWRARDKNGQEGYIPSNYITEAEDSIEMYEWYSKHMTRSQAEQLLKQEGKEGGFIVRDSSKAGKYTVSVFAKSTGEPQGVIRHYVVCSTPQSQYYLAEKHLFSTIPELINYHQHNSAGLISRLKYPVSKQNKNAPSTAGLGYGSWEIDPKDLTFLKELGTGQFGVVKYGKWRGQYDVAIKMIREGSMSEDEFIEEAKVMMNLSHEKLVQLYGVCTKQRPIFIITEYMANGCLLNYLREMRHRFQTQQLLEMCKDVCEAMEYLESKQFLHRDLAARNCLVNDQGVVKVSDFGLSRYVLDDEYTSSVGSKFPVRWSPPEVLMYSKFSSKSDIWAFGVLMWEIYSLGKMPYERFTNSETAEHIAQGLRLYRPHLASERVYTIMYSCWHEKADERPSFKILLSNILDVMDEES
# T1 sequence (Q06187 whole entry): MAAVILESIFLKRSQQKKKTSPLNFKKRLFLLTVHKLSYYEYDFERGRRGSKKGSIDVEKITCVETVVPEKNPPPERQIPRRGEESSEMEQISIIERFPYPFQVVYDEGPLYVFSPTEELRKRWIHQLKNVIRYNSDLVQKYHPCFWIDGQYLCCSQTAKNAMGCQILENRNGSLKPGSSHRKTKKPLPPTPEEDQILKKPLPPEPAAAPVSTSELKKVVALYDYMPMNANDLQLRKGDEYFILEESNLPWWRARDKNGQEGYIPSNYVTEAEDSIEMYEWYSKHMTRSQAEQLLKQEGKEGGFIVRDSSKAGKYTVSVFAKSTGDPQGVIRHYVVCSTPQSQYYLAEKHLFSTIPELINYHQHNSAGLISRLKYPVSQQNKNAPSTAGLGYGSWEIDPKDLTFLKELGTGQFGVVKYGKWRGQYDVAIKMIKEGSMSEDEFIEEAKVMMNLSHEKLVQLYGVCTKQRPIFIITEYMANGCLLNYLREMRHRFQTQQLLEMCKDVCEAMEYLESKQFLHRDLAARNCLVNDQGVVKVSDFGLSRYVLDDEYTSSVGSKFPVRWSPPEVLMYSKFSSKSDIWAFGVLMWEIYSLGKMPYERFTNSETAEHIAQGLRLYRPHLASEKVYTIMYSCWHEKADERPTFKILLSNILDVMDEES
Compound,bioavailability [1] [%],clearance [2] [mL/min/kg],"Papp A→B at 3 h, 10 µM [3] [×10⁻⁶ cm/s]",IC50 [4] [nM],Kinetic_solubility [5] [µM],IC50 [6] [nM],other results
Cn1cc(-c2cccc(N3CCc4c(sc5c4CCCC5)C3=O)c2CO)cc(Nc2ccncn2)c1=O,90,–,–,–,–,–,–
Cn1cc(-c2cc(F)cc(N3CCn4c(cc5c4CCCC5)C3=O)c2CO)cc(Nc2ccc(N3CCN(C4COC4)CC3)cn2)c1=O,27,20,> 10,10,73,–,–
CN1CCN(c2ccc(Nc3cc(-c4cccc(N5CCn6c(cc7c6CCCC7)C5=O)c4CO)cn(C)c3=O)nc2)CC1,20,40,1 to 10,107,115,4,IC50 [7]: 45 nM
C[C@@H]1C[C@H]2[C@@H]3CCC4=CC(=O)C=C[C@]4(C)[C@@]3(F)[C@@H](O)C[C@]2(C)[C@@]1(O)C(=O)CO,–,–,–,–,–,–,Activity [8]: Active
CN1CCN(c2ccc(Nc3cc(-c4cc(F)cc(N5CCn6c(cc7c6CCCC7)C5=O)c4CO)cn(C)c3=O)nc2)CC1,52,37,1 to 10,22,71,–,–
Cn1cc(-c2cccc(N3CCc4c(sc5c4CC(C)(C)C5)C3=O)c2CO)cc(Nc2ccncn2)c1=O,–,–,–,–,–,–,clearance [9]: 22 mL/min/kg; clearance [10]: 7 mL/min/kg; clearance [11]: 17 mL/min/kg; F [12]: 77%; F [13]: 45%; F [14]: 23%; F [15]: 27%; Activity [16]: Dose-dependent effect
Cc1c(NC(=O)c2cc3c(s2)CCCC3)cccc1-c1cc(Nc2ccncn2)c(=O)n(C)c1,45,2,–,740,–,42,–
CN1CCN(c2ccc(Nc3cc(-c4cccc(N5CCc6c(sc7c6CC(C)(C)C7)C5=O)c4CO)cn(C)c3=O)nc2)CC1,37,29,–,–,–,–,–
Cn1cc(-c2cccc(N3CCn4c(cc5c4CCCC5)C3=O)c2CO)cc(Nc2ccc(N3CCN(C4COC4)CC3)cn2)c1=O,46,14,1 to 10,137,99,8,IC50 [7]: 69 nM
Cn1cc(-c2cccc(N3CCc4cc(C(C)(C)C)ccc4C3=O)c2CO)cc(Nc2ccncn2)c1=O,–,–,–,51,2,–,–
